Here are results for 21 compounds from patent publication US20260356841A1, “HETEROCYCLIC PYRIDINONE COMPOUNDS AS TRIGGERING RECEPTOR EXPRESSED ON MYELOID CELLS 2 AGONISTS AND METHODS OF USE” (Vigil Neuroscience, Inc., priority 2023, published 2026).

In one assay the target is T1, human TREM2 (Homo sapiens, UniProt Q9NZC2).
T1 construct: expressed in transfected cells; host or cells: HEK293T (HEK293T-hTREM2 cells)
T1 sequence (Q9NZC2 19-230): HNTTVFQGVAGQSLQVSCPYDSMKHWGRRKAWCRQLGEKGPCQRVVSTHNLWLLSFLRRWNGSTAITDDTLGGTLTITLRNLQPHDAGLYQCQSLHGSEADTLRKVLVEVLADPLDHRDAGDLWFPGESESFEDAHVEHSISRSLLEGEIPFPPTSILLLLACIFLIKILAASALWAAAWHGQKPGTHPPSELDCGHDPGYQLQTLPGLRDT
T1 sequence (O43914 22-113 partner): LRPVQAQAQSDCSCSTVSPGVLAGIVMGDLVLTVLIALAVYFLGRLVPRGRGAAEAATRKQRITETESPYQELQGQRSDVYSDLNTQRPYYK
Description: TREM2 agonist potency by cellular phosphorylation of Spleen Tyrosine Kinase (Syk), AlphaLisa, HEK293T-hTREM2 cells.
Settings: not given
The assay is classed as cell-based. On the procedure: Measurement of TREM2 agonist potency was done using a HEK cell line expressing human TREM2 and DAP12 (HEK293T-hTREM2 cells). Binding of small molecules to, and activation of, TREM2 increases the phosphorylation of Syk. The resultant levels of Syk phosphorylation are measured using a commercial AlphaLisa reagent kit. To perform the assay, HEK-hTREM2 cells were plated at 14,000 cells per well in a 384 well plate, in 25 μL of complete growth media and incubated at 37° C., 5% CO2 for 20-24 hours.
Prior to the assay, test compounds were diluted in the 384 well plates in assay buffer and allowed to equilibrate for 30 minutes. Growth media was removed from cell plates by inversion on blotting paper, and 25 μL of test articles in assay buffer was added to cells. Cells were incubated for 45 minutes at room temperature. After 45 minutes, assay buffer was removed and 10 μL of lysis buffer was added. Plates were shaken for 20 minutes at 350 RPM at room temperature. After complete lysis, AlphaLisa reagents were added to the lysate, and fluorescence intensity was measured using a Perkin Elmer Envision plate reader. Intensities were used to generate a standard curve, and % activation was calculated. Curve fitting was performed using Prism v9 software, log (agonist) vs response-variable slope (four parameters), and EC50s were calculated from the curve fit.
The results presented in Table B have been generated with the in vitro assay described above. This assay may be used to test any of the compounds described herein to assess and characterize a compound's ability to act as an agonist of TREM2.
A general note: Alpha assays give light when donor and acceptor beads are brought close together.
For the compound `Cc1nc2cc(N3C[C@@H](C)O[C@@H](c4ccc(=O)n(C)c4)C3)nc(-c3ccc(F)cc3F)c2nc1C` [Example 191, 5-((2S,6R)-4-(5-(2,4-difluorophenyl)-2,3-dimethylpyrido[3,4-b]pyrazin-7-yl)-6-methylmorpholin-2-yl)-1-methylpyridin-2 (1H)-one], the EC50 (usually the midpoint of the concentration-response curve) is under 100 nM.

Take `Cc1nc2nc(N3C[C@@H](C)O[C@@H](c4ccc(=O)n(C)c4)C3)nc(-c3ccc(C(F)(F)F)cc3F)c2nc1C` [Example 7, 5-[(2S,6R)-4-[4-[2-fluoro-4-(trifluoromethyl)phenyl]-6,7-dimethyl-pteridin-2-yl]-6-methyl-morpholin-2-yl]-1-methyl-pyridin-2-one]: the EC50 was under 100 nM.

The same assay, now with this note: hTREM2 EC50 Data (HEK293 Cells); Syk phosphorylation, AlphaLisa; read-out: hTREM2 EC50.
For `Cc1nc2nc([C@H]3CCO[C@@H](c4ccc(=O)n(C)c4)C3)nc(C34CC(CCF)(C3)C4)c2nc1C` [Example 48, 5-((2R,4S)-4-(4-(3-(2-fluoroethyl)bicyclo[1.1.1]pentan-1-yl)-6,7-dimethylpteridin-2-yl)tetrahydro-2H-pyran-2-yl)-1-methylpyridin-2(1H)-one], the concentration giving a half-maximal response (EC50) is under 100 nM.

As for `Cc1nc2nc([C@H]3CCO[C@@H](c4ccc(=O)n(C)c4)C3)nc(C34CC(C(F)(F)F)(C3)C4)c2nc1C1CC1` [Example 158, 1-methyl-5-[(2R,4S)-4-[6-cyclopropyl-7-methyl-4-[3-(trifluoro-methyl)-1-bicyclo[1.1.1]pentanyl]pteridin-2-yl]tetrahydropyran-2-yl]pyridin-2-one], the EC50 is under 100 nM.

Take `COc1nc2c(-c3ccc(C(F)(F)F)cc3F)nc([C@H]3CCO[C@@H](c4ccc(=O)n(C5CC5)c4)C3)nc2nc1C` [Example 134, 1-cyclopropyl-5-[(2R,4S)-4-[4-[2-fluoro-4-(trifluoromethyl)phenyl]-6-methoxy-7-methyl-pteridin-2-yl]tetrahydropyran-2-yl]pyridin-2-one]: the EC50 was under 100 nM.

Turning to `CCn1cc([C@H]2C[C@@H](c3nc(C45CC(C(F)(F)F)(C4)C5)c4nc(C)c(C)nc4n3)CCO2)ccc1=O` [Example 80, 5-[(2R,4S)-4-[6,7-dimethyl-4-[3-(trifluoromethyl)-1-bicyclo[1.1.1]pentanyl]pteridin-2-yl]tetrahydropyran-2-yl]-1-ethyl-pyridin-2-one], the EC50 was under 100 nM.

On to `Cc1nc2nc([C@H]3CCO[C@@H](c4ccc(=O)n(C(F)F)c4)C3)nc(C34CC(C(F)(F)F)(C3)C4)c2nc1C` [Example 90], for which the EC50 was under 100 nM.

As to `Cc1nc2nc([C@H]3CCO[C@@H](c4ccc(=O)n(CC#N)c4)C3)nc(C34CC(C(F)(F)F)(C3)C4)c2nc1C` [Example 86, 2-[5-[(2R,4S)-4-[6,7-dimethyl-4-[3-(trifluoromethyl)-1-bicyclo[1.1.1]pentanyl]pteridin-2-yl]tetrahydropyran-2-yl]-2-oxo-1-pyridyl]acetonitrile], the EC50 was under 100 nM.

With `CN(C)c1nc2nc(C3CCOC(c4ccc(=O)n(C)c4)C3)nc(-c3ccc(F)cc3F)c2s1` (stereo not drawn) [Example 15], the EC50 is under 100 nM.

For `Cc1nc2nc([C@H]3CCO[C@@H](c4ccc(=O)n(C)c4)C3)nc(C3CCC(F)(F)CC3)c2nc1C` [Example 28, 5-((2R,4S)-4-(4-(4,4-difluorocyclohexyl)-6,7-dimethylpteridin-2-yl)tetrahydro-2H-pyran-2-yl)-1-methylpyridin-2 (1H)-one], the EC50 is under 100 nM.

As to `Cc1nc2nc(N3C[C@@H](C)O[C@@H](c4ccc(=O)[nH]c4)C3)nc(C34CC(C(F)(F)F)(C3)C4)c2nc1C1COC1` [Example 195, 5-[(2S,6R)-6-methyl-4-[7-methyl-6-(oxetan-3-yl)-4-[3-(trifluoromethyl)-1-bicyclo[1.1.1]pentanyl]pteridin-2-yl]morpholin-2-yl]-1H-pyridin-2-one], the EC50 was under 100 nM.

With `Cc1nc2nc([C@@H]3CCO[C@H](c4ccc(=O)n(C56CC(C5)C6)c4)C3)nc(C34CC(C(F)(F)F)(C3)C4)c2nc1C` [Example 121, 1-(1-bicyclo[1.1.1]pentanyl)-5-[(2S,4R)-4-[6,7-dimethyl-4-[3-(trifluoromethyl)-1-bicyclo[1.1.1]-pentanyl]pteridin-2-yl]tetrahydropyran-2-yl]pyridine-2-one], the EC50 was under 100 nM.

As for `CN1Cc2c(cc([C@H]3CCO[C@@H](c4ccc(=O)n(C)c4)C3)nc2-c2ccc(C(F)(F)F)cc2F)C1=O` (single isomer, unassigned) [Example 165], the EC50 lay in the range of 100 to 500 nM.

`Cc1nc2nc(C3CCOC(c4ccc(=O)n(C)c4)C3)nc(C34CC(C(F)(F)F)(C3)C4)c2nc1C` (stereo not drawn) [Example 27, 5-(4-(6,7-dimethyl-4-(3-(trifluoromethyl)-bicyclo[1.1.1]pentan-1-yl)pteridin-2-yl)tetrahydro-2H-pyran-2-yl)-1-methylpyridin-2(1H)-one]: the concentration giving a half-maximal response (EC50) is under 100 nM.

With `Cc1nc2nc(N3CCC(F)(F)C(c4ccc(=O)[nH]c4)C3)nc(-c3ccc(F)cc3F)c2nc1C` (stereo not drawn) [Example 189, 5-[1-[4-(2,4-difluorophenyl)-6,7-dimethyl-pteridin-2-yl]-4,4-difluoro-3-piperidyl]-1H-pyridin-2-one], the EC50 was under 100 nM.

As for `COCCn1cc([C@H]2C[C@@H](c3nc(C45CC(C(F)(F)F)(C4)C5)c4nc(C)c(C)nc4n3)CCO2)ccc1=O` [Example 82, 5-[(2R,4S)-4-[6,7-dimethyl-4-[3-(trifluoromethyl)-1-bicyclo[1.1.1]pentanyl]pteridin-2-yl]tetrahydropyran-2-yl]-1-(2-methoxyethyl)pyridin-2-one], the EC50 was under 100 nM.

On to `Cc1nc2nc([C@@H]3CCO[C@H](c4ccc(=O)n(C5CC5)c4)C3)nc(C34CC(C(F)(F)F)(C3)C4)c2nc1C` [Example 75, 1-cyclopropyl-5-[(2S,4R)-4-[6,7-dimethyl-4-[3-(trifluoromethyl)-1-bicyclo[1.1.1]-pentanyl]-pteridin-2-yl]tetrahydropyran-2-yl]pyridin-2-one], for which the EC50 was under 100 nM.

As for `[2H]C([2H])([2H])c1nc2nc(N3C[C@@H](C)O[C@@H](c4ccc(=O)n(C5CC5)c4)C3)nc(C34CC(C(F)(F)F)(C3)C4)c2nc1C([2H])([2H])[2H]` [Example 182, 5-[(2S,6R)-4-[6,7-bis(methyl-d3)-4-[3-(trifluoromethyl)-1-bicyclo[1.1.1]pentan-1-yl]pteridin-2-yl]-6-methyl-morpholin-2-yl]-1-cyclopropylpyridin-2(1H)-one], the EC50 was under 100 nM.

Consider `COc1nc2c(-c3ccc(C(F)(F)F)cc3F)nc([C@H]3CCO[C@@H](c4ccc(=O)n(C)c4)C3)nc2nc1C` [Example 129, 1-methyl-5-[(2R,4S)-4-[4-[2-fluoro-4-(trifluoromethyl)phenyl]-6-methoxy-7-methyl-pteridin-2-yl]tetrahydropyran-2-yl]pyridin-2-one], for which the EC50 was under 100 nM.

Turning to `Cc1nc2nc([C@H]3CCO[C@@H](c4ccc(=O)n(C5CC5)c4)C3)nc(C34CC(C(F)(F)F)(C3)C4)c2cc1C(F)(F)F` [Example 328, 1-cyclopropyl-5-((2R,4S)-4-(7-methyl-6-(trifluoromethyl)-4-(3-(trifluoromethyl)bicyclo[1.1.1]-pentan-1-yl)pyrido[2,3-d]pyrimidin-2-yl)tetrahydro-2H-pyran-2-yl)pyridin-2(1H)-one], the EC50 was under 100 nM.

For the compound `Cc1nc2nc([C@H]3CCO[C@@H](c4ccc(=O)n(C)c4)C3)nc([C@H]3CC[C@H](F)CC3)c2nc1C` [Example 42, 5-((2R,4S)-4-(4-((1r,4S)-4-fluorocyclohexyl)-6,7-dimethyl-pteridin-2-yl)tetrahydro-2H-pyran-2-yl)-1-methylpyridin-2(1H)-one], the EC50 was under 100 nM.
